Data reported in patent publication US12662451B2, “Chemical compounds and uses thereof” (GLAXOSMITHKLINE INTELLECTUAL PROPERTY (NO.4) LIMITED, priority 2023, dated 2026).
Read-outs that look alike come from different tables or passages of the source.

What was measured:
[1] = tested on: SW48 human colorectal cancer cells (MSI-H cancer cells); test: SW48 cell viability, CellTiter-Glo, 120 hours (Example B); conditions: Homo sapiens
[2] = Cell culture media unbound percentage and stability by rapid equilibrium dialysis (Example C); type: in vitro ADME; conditions: bovine, cell assay medium (RPMI-1640 with 10% fetal bovine serum), pH 7.4, rapid equilibrium dialysis, 4 hours at 37° C., read-out: Cell Culture Media Binding (% unbound)
Method in brief: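 Percent unbound in cell assay medium came from the LC-MS/MS receiver:donor peak area ratio, with stability taken as the 240 min over 0 min ratio. Set-up: 1 μM nominal compound in medium dialysed against pH 7.4 PBS (100 mM phosphate, 150 mM NaCl), 4 h, 37° C, shaken, in triplicate.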

[3] = molecular target: T1, recombinant full-length WRN protein (1-1432) (Homo sapiens, UniProt Q14191); test: WRN unwinding activity, fluorogenic 384-well assay (Example A); type: biochemical; conditions: WRN unwinding activity, 4 hr; Table 2; read-out: 4 hr UNW pIC50 (converted)
T1 construct: recombinant full-length WRN protein (1-1432)
Method in brief: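 Read-out is end-point unwinding of a fluorophore/quencher duplex (ex 525, em 598 nm) after 60 min with 200 μM ATP and 12 nM DNA (2× stocks), EDTA stop. Compound first sat 4 h with 200 pM WRN (2× stock) in pH 8.0 Tris buffer; four-parameter fit gives pIC50.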

[4] = tested on: SW48 human colorectal cancer cells; test: Calculated free drug potency in SW48 cell assay, corrected with media free fraction (Example C); type: cell-based; conditions: Homo sapiens, SW48, SW48 pCC50 corrected with measured free fraction in cell assay media
Method in brief: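 Free drug potency derives from correcting SW48 assay concentrations with the unbound fraction in medium. That fraction came from RED against pH 7.4 PBS, 1 μM nominal compound, 4 h at 37 °C, quantified by LC-MS/MS peak area ratios at T=240 versus T=0 min.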

[5] = SW48, 120 h, read-out: SW48 pCC50, SW48 cell viability, 120 hours incubation (converted), Table 2
[6] = SW48, read-out: SW48 pCC50, measured potency from Example B, as repeated in Table 3 (converted)

T1 sequence (Q14191 whole entry): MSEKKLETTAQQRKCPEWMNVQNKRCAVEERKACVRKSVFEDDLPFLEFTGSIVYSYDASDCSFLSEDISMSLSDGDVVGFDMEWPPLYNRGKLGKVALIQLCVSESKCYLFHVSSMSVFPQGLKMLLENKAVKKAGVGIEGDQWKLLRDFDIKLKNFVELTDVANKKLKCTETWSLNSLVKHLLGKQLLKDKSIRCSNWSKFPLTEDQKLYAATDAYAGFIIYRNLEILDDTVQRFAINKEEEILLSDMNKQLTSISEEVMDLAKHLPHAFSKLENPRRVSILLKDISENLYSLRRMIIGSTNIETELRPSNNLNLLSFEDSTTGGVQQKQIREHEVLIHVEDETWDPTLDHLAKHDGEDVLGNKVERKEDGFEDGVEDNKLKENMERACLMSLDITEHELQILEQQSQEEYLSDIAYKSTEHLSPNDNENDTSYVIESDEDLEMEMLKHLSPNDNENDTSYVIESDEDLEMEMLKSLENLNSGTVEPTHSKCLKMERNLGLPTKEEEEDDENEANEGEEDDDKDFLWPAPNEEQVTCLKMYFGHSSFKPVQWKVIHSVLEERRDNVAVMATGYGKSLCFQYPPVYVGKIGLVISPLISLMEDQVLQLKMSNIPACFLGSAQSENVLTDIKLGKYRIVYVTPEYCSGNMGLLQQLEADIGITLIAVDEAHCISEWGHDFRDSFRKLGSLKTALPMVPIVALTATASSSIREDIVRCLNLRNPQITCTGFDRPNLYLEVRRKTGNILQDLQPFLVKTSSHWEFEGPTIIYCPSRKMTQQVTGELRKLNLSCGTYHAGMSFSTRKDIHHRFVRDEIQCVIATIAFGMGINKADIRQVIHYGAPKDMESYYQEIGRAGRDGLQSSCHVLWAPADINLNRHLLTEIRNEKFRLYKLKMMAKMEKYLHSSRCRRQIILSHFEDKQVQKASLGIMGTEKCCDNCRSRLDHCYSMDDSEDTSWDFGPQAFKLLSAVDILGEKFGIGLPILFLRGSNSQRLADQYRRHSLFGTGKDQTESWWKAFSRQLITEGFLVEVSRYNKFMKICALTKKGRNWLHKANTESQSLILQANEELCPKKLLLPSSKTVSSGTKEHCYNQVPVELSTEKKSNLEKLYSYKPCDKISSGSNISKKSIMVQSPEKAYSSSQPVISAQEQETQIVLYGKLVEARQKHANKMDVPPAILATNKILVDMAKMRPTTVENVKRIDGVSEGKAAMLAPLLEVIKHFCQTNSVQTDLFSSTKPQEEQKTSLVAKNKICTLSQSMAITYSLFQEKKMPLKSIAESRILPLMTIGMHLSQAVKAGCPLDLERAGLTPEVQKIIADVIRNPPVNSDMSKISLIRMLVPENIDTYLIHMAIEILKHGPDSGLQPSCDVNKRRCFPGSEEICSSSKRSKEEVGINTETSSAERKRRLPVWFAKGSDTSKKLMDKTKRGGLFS

CN(c1ccc([C@H]2CCC[C@@H](C(=O)Nc3ccc(C(F)(F)F)cc3F)[C@@H]2C(=O)O)cc1)S(=O)(=O)c1ccc2c(c1)nc(C1CC1)n2C [Example 130, (1R,2S,6R)-2-(4-((2-cyclopropyl-N,1-dimethyl-1H-benzo[d]imidazole)-5-sulfonamido)phenyl)-6-((2-fluoro-4-(trifluoromethyl)phenyl)carbamoyl)cyclohexane-1-carboxylic acid]
CC50 [1, 5]: 501 nM
CC50 [1, 6]: 501 nM
fraction unbound at 4 h, 1 µM [2]: 0.0326
IC50 [3]: 6.31 nM
CC50 [4]: 16.2 nM

CC(C)c1nc2cc(S(=O)(=O)N(C)c3ccc([C@H]4CCC[C@@H](C(=O)Nc5ccc(C(F)(F)F)cc5F)[C@@H]4C(=O)O)cc3)ccc2n1C [Example 132, (1R,2R,6S)-2-((2-fluoro-4-(trifluoromethyl)phenyl)carbamoyl)-6-(4-((2-isopropyl-N, 1-dimethyl-1H-benzo[d]imidazole)-5-sulfonamido)phenyl)cyclohexane-1-carboxylic acid]
CC50 [1, 5]: 631 nM
CC50 [1, 6]: 631 nM
fraction unbound at 4 h, 1 µM [2]: 0.0349
IC50 [3]: 12.6 nM
CC50 [4]: 21.9 nM

CCO[C@@H]1C[C@H](c2ccc(N(C)S(=O)(=O)c3ccc4c(c3)nc(N(C)C)n4C)cc2)[C@@H](C(=O)O)[C@H](C(=O)Nc2ccc(C(F)(F)F)cc2F)C1 [Example 139, (1R,2S,4R,6R)-2-(4-((2-(dimethylamino)-N,1-dimethyl-1H-benzo[d]imidazole)-5-sulfonamido)phenyl)-4-ethoxy-6-((2-fluoro-4-(trifluoromethyl)phenyl)carbamoyl)cyclohexane-1-carboxylic acid]
CC50 [1, 5]: 100 nM
CC50 [1, 6]: 100 nM
fraction unbound at 4 h, 1 µM [2]: 0.0518
IC50 [3]: 1.58 nM
CC50 [4]: 5.13 nM

CCO[C@@H]1C[C@H](c2ccc(N(C)S(=O)(=O)c3ccc4c(c3)ncn4C)cc2)[C@@H](C(=O)O)[C@H](C(=O)Nc2ccc(C(F)(F)F)cc2F)C1 [Example 140, (1R,2S,4R,6R)-2-(4-((N,1-dimethyl-1H-benzo[d]imidazole)-5-sulfonamido)phenyl)-4-ethoxy-6-((2-fluoro-4-(trifluoromethyl)phenyl)carbamoyl)cyclohexane-1-carboxylic acid]
CC50 [1, 5]: 158 nM
CC50 [1, 6]: 158 nM
fraction unbound at 4 h, 1 µM [2]: 0.101
IC50 [3]: 2.51 nM
CC50 [4]: 15.8 nM

CCO[C@@H]1C[C@H](c2ccc(N(C)S(=O)(=O)c3cnc4c(c3)nc(C)n4C)cc2)[C@@H](C(=O)O)[C@H](C(=O)Nc2ccc(C(F)(F)F)cc2F)C1 [Example 141, (1R,2R,4R,6S)-4-ethoxy-2-((2-fluoro-4-(trifluoromethyl)phenyl)carbamoyl)-6-(4-((N,2,3-trimethyl-3H-imidazo[4,5-b]pyridine)-6-sulfonamido)phenyl)cyclohexane-1-carboxylic acid]
CC50 [1, 5]: 631 nM
CC50 [1, 6]: 631 nM
fraction unbound at 4 h, 1 µM [2]: 0.112
IC50 [3]: 3.16 nM
CC50 [4]: 70.8 nM

Cc1nc2cc(S(=O)(=O)N(C)c3ccc([C@H]4CCC[C@@H](C(=O)Nc5ccc(C(F)(F)F)nc5)[C@@H]4C(=O)O)cc3)ccc2n1C [Example 172, (1R,2R,6S)-2-((6-(trifluoromethyl)pyridin-3-yl)carbamoyl)-6-(4-((N,1,2-trimethyl-1H-benzo[d]imidazole)-5-sulfonamido)phenyl)cyclohexane-1-carboxylic acid]
CC50 [1, 5]: 1260 nM
CC50 [1, 6]: 1260 nM
fraction unbound at 4 h, 1 µM [2]: 0.176
IC50 [3]: 3.98 nM
CC50 [4]: 219 nM

Cc1nc2cc(S(=O)(=O)N(C)c3ccc([C@H]4CCC[C@@H](C(=O)Nc5ccc(C(F)(F)F)cc5)[C@@H]4C(=O)O)cc3)ccc2n1C [Example 173, (1R,2R,6S)-2-((4-(trifluoromethyl)phenyl)carbamoyl)-6-(4-((N,1,2-trimethyl-1H-benzo[d]imidazole)-5-sulfonamido)phenyl)cyclohexane-1-carboxylic acid]
CC50 [1, 5]: 631 nM
CC50 [1, 6]: 631 nM
fraction unbound at 4 h, 1 µM [2]: 0.0163
IC50 [3]: 5.01 nM
CC50 [4]: 10.2 nM

Cc1nc2cc(S(=O)(=O)N(C)c3ccc([C@H]4CCC[C@@H](C(=O)N[C@H]5CC[C@H](C(F)(F)F)CC5)[C@@H]4C(=O)O)cc3)ccc2n1C [Example 177, (1R,2R,6S)-2-(((1r,4R)-4-(trifluoromethyl)cyclohexyl)carbamoyl)-6-(4-((N,1,2-trimethyl-1H-benzo[d]imidazole)-5-sulfonamido)phenyl)cyclohexane-1-carboxylic acid]
CC50 [1, 5]: 1580 nM
CC50 [1, 6]: 1580 nM
fraction unbound at 4 h, 1 µM [2]: 0.237
IC50 [3]: 1.58 nM
CC50 [4]: 372 nM

Cc1nc2cc(S(=O)(=O)N(C)c3ccc([C@H]4CCC[C@@H](C(=O)Nc5ccc(C(F)F)cc5F)[C@@H]4C(=O)O)cc3)ccc2n1C [Example 179, (1R,2R,6S)-2-((4-(difluoromethyl)-2-fluorophenyl)carbamoyl)-6-(4-((N,1,2-trimethyl-1H-benzo[d]imidazole)-5-sulfonamido)phenyl)cyclohexane-1-carboxylic acid]
CC50 [1, 5]: 1000 nM
CC50 [1, 6]: 1000 nM
fraction unbound at 4 h, 1 µM [2]: 0.146
IC50 [3]: 2.51 nM
CC50 [4]: 145 nM

Cc1nc2cc(S(=O)(=O)N(C)c3ccc([C@H]4CCC[C@@H](C(=O)N[C@H]5CC[C@H](C(C)C)CC5)[C@@H]4C(=O)O)cc3)ccc2n1C [Example 180, (1R,2R,6S)-2-(((1r,4R)-4-isopropylcyclohexyl)carbamoyl)-6-(4-((N,1,2-trimethyl-1H-benzo[d]imidazole)-5-sulfonamido)phenyl)cyclohexane-1-carboxylic acid]
CC50 [1, 5]: 631 nM
CC50 [1, 6]: 631 nM
fraction unbound at 4 h, 1 µM [2]: 0.0357
IC50 [3]: 3.98 nM
CC50 [4]: 22.4 nM

Cc1nc2cc(S(=O)(=O)N(C)c3ccc([C@H]4CCC[C@@H](C(=O)Nc5ccc(C(C)(C)O)cc5F)[C@@H]4C(=O)O)cc3)ccc2n1C [Example 181, (1R,2R,6S)-2-((2-fluoro-4-(2-hydroxypropan-2-yl)phenyl)carbamoyl)-6-(4-((N,1,2-trimethyl-1H-benzo[d]imidazole)-5-sulfonamido)phenyl)cyclohexane-1-carboxylic acid]
CC50 [1, 5]: 2000 nM
CC50 [1, 6]: 2000 nM
fraction unbound at 4 h, 1 µM [2]: 0.303
IC50 [3]: 1.58 nM
CC50 [4]: 603 nM

Cc1nc2cc(S(=O)(=O)N(C)c3ccc([C@H]4CCC[C@@H](C(=O)Nc5ccc6c(c5)CC(F)(F)C6)[C@@H]4C(=O)O)cc3)ccc2n1C [Example 194, (1R,2R,6S)-2-((2,2-difluoro-2,3-dihydro-1H-inden-5-yl)carbamoyl)-6-(4-((N,1,2-trimethyl-1H-benzo[d]imidazole)-5-sulfonamido)phenyl)cyclohexane-1-carboxylic acid]
CC50 [1, 5]: 10000 nM
fraction unbound at 4 h, 1 µM [2]: 0.114
IC50 [3]: 7.94 nM
CC50 [4]: 1150 nM

CCc1ccc(NC(=O)[C@@H]2CCC[C@H](c3ccc(N(C)S(=O)(=O)c4ccc5c(c4)nc(C)n5C)cc3)[C@H]2C(=O)O)cc1 [Example 196, (1R,2R,6S)-2-((4-ethylphenyl)carbamoyl)-6-(4-((N,1,2-trimethyl-1H-benzo[d]imidazole)-5-sulfonamido)phenyl)cyclohexane-1-carboxylic acid]
CC50 [1, 5]: 1580 nM
CC50 [1, 6]: 1580 nM
fraction unbound at 4 h, 1 µM [2]: 0.0606
IC50 [3]: 3.16 nM
CC50 [4]: 95.5 nM
